Assay results published in US5750550A, “2-(pyrazol-5-yl-oxymethyl)-1,2-benzisothiazol-3 (2H)-One 1, 1-dioxides and compositions and method of use thereof” (Sanofi, priority 1995, dated 1998).
pKi: −log10 of the molar value.

Biological target: T1, human leukocyte elastase (Homo sapiens, UniProt P08246)
T1 sequence (P08246 30-267): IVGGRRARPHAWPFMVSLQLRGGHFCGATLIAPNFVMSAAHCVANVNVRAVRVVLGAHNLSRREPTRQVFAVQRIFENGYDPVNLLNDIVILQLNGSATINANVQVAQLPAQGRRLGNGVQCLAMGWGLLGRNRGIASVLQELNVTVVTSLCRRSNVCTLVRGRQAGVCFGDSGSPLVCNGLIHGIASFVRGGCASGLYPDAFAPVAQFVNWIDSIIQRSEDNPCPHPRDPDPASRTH
Test: human leukocyte elastase (HLE) inhibitory activity, substrate MeOSuc-Ala-Ala-Pro-Val-pNA
Assay type: biochemical
Details: pH 7.8, 25° C., steady-state velocities
Experimental: The test compound (inhibitor) is dissolved in DMSO in a vial to produce an inhibitor stock solution which has a concentration in the range of 200-1000 μM. The inhibitor stock solution is diluted (1:4, 1:16 and 1:64) into assay vials (vials 1, 2 and 3 respectively) containing 2.4 mL of buffer solution (50 mM N-[2-hydroxyethyl] piperazine-N'-[2-ethanesulfonic acid]/NaOH, 500 mM NaCl, pH 7.8 at 25° C.) and DMSO is added so that the total volume in each vial is 3.2 mL. 70 μL, 50 μL, 35 μL and 25 μL of inhibitor from assay vial 1 is placed into the first four wells of a 96-well microtiter plate and each well is made up to 90 μL total volume with the addition of a 25% DMSO/buffer solution. The inhibitor from assay vials 2 and 3 is processed in a similar manner and placed in wells 5-12 respectively to afford a total of 12 different inhibitor concentrations. Four wells (wells 13-16) containing 90 μL of the 25% DMSO/buffer solution but no inhibitor are also run simultaneously with the inhibited wells as a control. 150 μL of substrate solution (prepared by the addition of 500 μL of the human leukocyte elastase (HLE) substrate MeOSuc-Ala-Ala-Pro-Val-pNA (18.7 mM in DMSO) to 19.5 mL of buffer solution) is then added simultaneously into each of the 16 wells and the solution in each well was thoroughly mixed.
The 96-well microtiter plate is placed into a Microplate Reader #89815A spectrophotometer and 110 μL of the enzyme solution (prepared as follows: a mixture of 20 mL of buffer solution and 20 mg of bovine serum albumen is gently vortexed in a scintillation vial and 5 μL HLE stock solution (1 mg/mL dissolved in deionized water) is added) is added simultaneously to each of the 16 wells. Each of the solutions in the wells is throughly mixed and then the time-dependent absorbance data is collected at an absorbance of 410 nm until the assay is complete. It should be noted that although this assay method can be done manually, it is preferred to perform the assay robotically using a Hewlett Packard MicroAssay System Robot. the absorbance versus time data thus obtained affords curves the final slope of which is equal to the final steady-statevelocities (VF). Using the program ENZFITTER (Elsevier software), the progress curves for the four control assays ([I]=0 are fit by linear regression to yield the enzyme reaction velocity values in the absences of inhibitor (Vo) which are averaged to produce a single fixed value. The inhibition constant Ki (nM) is then obtained from a plot of [formula] which affords a linear plot wherein: [formula] and [S] is the concentration of the substrate and Km is the Michaelis constant.
Table I summarizes the results obtained from the testing of compounds of the invention for human leukocyte elastase inhibitory activity.

Row | Structure (SMILES) | pKi
1 | COc1cc(C(C)C)c2c(c1)S(=O)(=O)N(COc1cc(C(F)(F)F)nn1-c1ncccc1C)C2=O [45 (b), 4-isopropyl-6-methoxy-2-[1-(3-methyl-2-pyridyl)-3-trifluoromethylpyrazol-5-yl-oxymethyl]-1,2-benzisothiazol-3(2H)-one 1,1-dioxide] | 10.21
2 | CCN(CC)CCN(C)C(=O)c1cc(OCN2C(=O)c3c(C(C)C)cc(OC)cc3S2(=O)=O)n(-c2ccccc2)n1 [31 (b)] | 9.84
3 | COc1cc(C(C)C)c2c(c1)S(=O)(=O)N(COc1cc(C#N)nn1-c1ccc(Cl)cc1Cl)C2=O [50 (b), 4-isopropyl-6-methoxy-2-[1-(2,4-dichlorophenyl)-3-cyanopyrazol-5-yl-oxymethyl]-1,2-benzisothiazol-3(2H)-one 1,1-dioxide] | 10.24
4 | COc1cc(C(C)C)c2c(c1)S(=O)(=O)N(COc1cc(C(F)(F)F)nn1-c1ccccc1)C2=O [Example 3, 4-isopropyl-6-methoxy-2-(1-phenyl-3-trifluoromethylpyrazol-5-yl-oxymethyl)-1,2-benzisothiazol-3(2H)-one 1,1-dioxide] | 10.17
5 | COc1cc(C(C)C)c2c(c1)S(=O)(=O)N(COc1cc(C(F)(F)F)nn1-c1ccncc1)C2=O [22 (b), 4-isopropyl-6-methoxy-2-[1-(4-pyridyl)-3-trifluoromethylpyrazol-5-yl-oxymethyl]-1,2-benzisothiazol-3(2H)-one 1,1-dioxide] | 9.74
6 | COc1cc(C(C)C)c2c(c1)S(=O)(=O)N(COc1cc(C#N)nn1-c1ccc(Cl)cc1)C2=O [Example 46, 4-isopropyl-6-methoxy-2-[1-(4-chlorophenyl)-3-cyanopyrazol-5-yl-oxymethyl]-1,2-benzisothiazol-3(2H)-one 1,1-dioxide] | 9.72
7 | COc1cc(C(C)C)c2c(c1)S(=O)(=O)N(COc1cc(C(F)(F)F)nn1-c1ccccc1Cl)C2=O [30 (b), 4-isopropyl-6-methoxy-2-[1-(2-chlorophenyl)-3-trifluoromethylpyrazol-5-yl-oxymethyl]-1,2-benzisothiazol-3(2H)-one 1,1-dioxide] | 10.15
8 | COc1cc(C(C)C)c2c(c1)S(=O)(=O)N(COc1cc(C(F)(F)F)nn1-c1cccc(C(F)(F)F)n1)C2=O [36 (b), 4-isopropyl-6-methoxy-2-[1-(6-trifluoromethyl-2-pyridyl)-3-trifluoromethylpyrazol-5-yl-oxymethyl]-1,2-benzisothiazol-3(2H)-one 1,1-dioxide] | 10.54
9 | COc1cc(C(C)C)c2c(c1)S(=O)(=O)N(COc1cc(C(F)(F)F)nn1Cc1ccccc1)C2=O [Example 48, 4-isopropyl-6-methoxy-2-[1-benzyl-3-trifluoromethylpyrazol-5-yl-oxymethyl]-1,2-benzisothiazol-3(2H)-one 1,1-dioxide] | 7.41
10 | COc1cc(C(C)C)c2c(c1)S(=O)(=O)N(COc1cc(C(=O)OC(C)(C)C)nn1-c1ccccc1)C2=O [33 (b), 4-isoorooyl-6-methoxy-2-[1-phenyl-3-(t-butoxycarbonyl)pyrazol-5-yl-oxymethyl]-1,2-benzisothiazol-23 (2H)-one 1,1-dioxide] | 10.00
11 | COc1cc(C(C)C)c2c(c1)S(=O)(=O)N(COc1cc(C(=O)O)nn1-c1ccccc1)C2=O [Example 21, 4-isopropyl-6-methoxy-2-[1-phenyl-3-(carboxy)pyrazol-5-yl-oxymethyl]-1,2-benzisothiazol-3(2H)-one 1,1-dioxide] | 9.51
12 | COc1cc(C(C)C)c2c(c1)S(=O)(=O)N(COc1cc(C)nn1C)C2=O [Example 1, 4-isopropyl-6-methoxy-2-(1,3-dimethylpyrazol-5-yl-oxymethyl)-1,2-benzisothiazol-3(2H)-one 1,1-dioxide] | 9.14
13 | COc1cc(C(C)C)c2c(c1)S(=O)(=O)N(COc1cc(C(F)(F)F)nn1-c1cccc(Cl)c1)C2=O [51 (b), 4-isopropyl-6-methoxy-2-[1-(3-chlorophenyl)-3-trifluoromethylpyrazol-5-yl-oxymethyl]-1,2-benzisothiazol-3(2H)-one 1,1-dioxide] | 9.89
14 | CC(C)c1cc(OCCCC(=O)O)cc2c1C(=O)N(COc1cc(C(F)(F)F)nn1-c1ccc(Cl)cc1)S2(=O)=O [39 (c), 4-isopropyl-6-[3-(carboxy)propoxy]-2-[1-(4-chlorophenyl)-3-trifluoromethylpyrazol-5-yl-oxymethyl]-1,2-benzisothiazol-3(2H)-one 1,1-dioxide] | 10.13
15 | COc1cc(C(C)C)c2c(c1)S(=O)(=O)N(COc1cc(C(F)(F)F)nn1-c1ccc(Cl)cc1)C2=O [8 (b), 4-isopropyl-6-methoxy-2-[1-(4-chlorophenyl)-3-trifluoromethylpyrazol-5-yl-oxymethyl]-1,2-benzisothiazol-3(2H)-one 1,1-dioxide] | 9.96
16 | COc1ccc(COC(=O)c2ccc(COc3cc(C(C)C)c4c(c3)S(=O)(=O)N(COc3cc(C(F)(F)F)nn3-c3ccccc3)C4=O)o2)cc1 [42 (b)] | 10.09
17 | CCOc1cc(OCC)c2c(c1)S(=O)(=O)N(COc1cc(C(F)(F)F)nn1-c1ccccc1)C2=O [Example 47, 4,6-diethoxy-2-[1-phenyl-3-trifluoromethylpyrazol-5-yl-oxymethyl]-1,2-benzisothiazol-3(2H)-one 1,1-dioxide] | 9.30
18 | COc1cc(C(C)C)c2c(c1)S(=O)(=O)N(COc1cc(C#N)nn1-c1ccccc1)C2=O [Example 35, 4-isopropyl-6-methoxy-2-(1-phenyl-3-cyanopyrazol-5-yl-oxymethyl)-1,2-benziso thiazol-3(2H)-one 1,1-dioxide] | 10.85
19 | CC(C)c1cc(OCCC(C)(C)C(=O)O)cc2c1C(=O)N(COc1cc(C(F)(F)F)nn1-c1ccccc1)S2(=O)=O [38 (d)] | 9.74
20 | COc1cc(C(C)C)c2c(c1)S(=O)(=O)N(COc1cc(C)nn1-c1ccc([N+](=O)[O-])cc1)C2=O [Example 7, 4-isopropyl-6-methoxy-2-[1-(p-nitrophenyl)-3-methylpyrazol-5-yl-oxymethyl]-1,2-benzisothiazol-3(2H)-one 1,1-dioxide] | 10.12
21 | COc1cc(C(C)C)c2c(c1)S(=O)(=O)N(COc1cc(C(F)(F)F)nn1-c1ccc([N+](=O)[O-])cc1)C2=O [11 (c), 4-isopropyl-6-methoxy-2-[1-(4-nitrophenyl)-3-trifluoromethylpyrazol-5-yl-oxymethyl)-1,2-benzisothiazol-3(2H)-one 1,1-dioxide] | 10.05
22 | COc1cc(C(C)C)c2c(c1)S(=O)(=O)N(COc1cc(-c3ccccc3)nn1-c1ccccc1)C2=O [5 (b), 4-isopropyl-6-methoxy-2-(1,3-diphenylpyrazol-5-yl-oxymethyl)-1,2-benzisothiazol-3(2H)-one 1,1-dioxide] | 9.04
23 | CCOC(=O)c1cc(OCN2C(=O)c3c(C(C)C)cc(OC)cc3S2(=O)=O)n(-c2ccccc2)n1 [Example 12, 4-isopropyl-6-methoxy-2-(1-phenyl-3-ethoxycarbonylpyrazol-5-yl-oxymethyl)-1,2-benzisothiazol-3(2H)-one 1,1-dioxide] | 10.11
24 | CC(C)c1cc(OCC(C)(C)C(=O)O)cc2c1C(=O)N(COc1cc(C(F)(F)F)nn1-c1ccccc1)S2(=O)=O [18 (b), 4-isopropyl-6-[2-(carboxy-2-methyl)propoxy]-2-(1-phenyl-3-trifluoromethylpyrazol-5-yl-oxymethyl)-1,2-benzisothiazol-3(2H)-one 1,1-dioxide] | 9.66
25 | CC(C)c1cc(OCCCCCC(=O)O)cc2c1C(=O)N(COc1cc(C(F)(F)F)nn1-c1ccccc1)S2(=O)=O [37 (f), 4-isopropyl-6-[5-(carboxy)-enthyloxy]-2-(1-phenyl-3-trifluoromethylpyrazol-5-yl-oxymethyl)-1,2-benzisothiazol-3(2H)-one 1,1-dioxide] | 10.09
26 | COc1cc(C(C)C)c2c(c1)S(=O)(=O)N(COc1cc(-c3c(F)c(F)c(F)c(F)c3F)nn1-c1ccccc1)C2=O [19 (c)] | 9.09
27 | COc1cc(C(C)C)c2c(c1)S(=O)(=O)N(COc1cc(C)nn1-c1ccccc1)C2=O [4 (b), 4-isopropyl-6-methoxy-2-(1-phenyl-3-methylpyrazol-5-yl-oxymethyl)-1,2-benzisothiazol-3(2H)-one 1,1-dioxide] | 9.36
